Data from PubChem BioAssay AID463179 (Southern Research Specialized Biocontainment Screening …, 2010).
Activity calls are given as the source filed them. How the calls were made is not given here.

Legend:
[1] = Inhibitors of PhoP regulon, Salmonella typhi GFP reporter, confirmatory dose response (AID 463179); conditions: Salmonella Typhi PhoP-promoter GFP reporter, fluorescence, 4 h; at 150 µM (top of the series)
[2] = system: Salmonella Typhi PhoP-promoter GFP reporter, fluorescence, 4 h; assay: as above

| Structure (SMILES) | inhibition [1] | IC50 [2] |
| --- | --- | --- |
| O=C1C2=C(Nc3ccccc3SC2c2ccc(Cl)cc2)c2ccccc21 (centres undefined) | 18% (inactive) | – |
| O=C1C2=C(Nc3ccccc3SC2c2cccc(Br)c2)c2ccccc21 (centres undefined) | -12.2% (inactive) | – |
| Clc1ccc(C2Sc3ccccc3N=C3c4ccccc4CC32)cc1 (centres undefined) | – | 6.26 µM |
| Cc1ccc(C2Sc3ccccc3N=C3c4ccccc4CC32)cc1 (centres undefined) | – | 2.67 µM |
